In US10570179B2, “Substituted urea depsipeptide analogs as activators of the CLPP endopeptidase” (priority 2016, dated 2020):
≈ marks a conversion by molar mass, not a printed value. Read-outs that look alike come from different tables or passages of the source. Numbered stars: 1 amine (or outer) side, 2 acyl side, 3 side chain; on linkers, the order of the positions; unused ones are H or OH. Bridge positions count the residues as written; N and C are the ends. Square brackets hold non-standard residues; d marks the D form. Peptide text beside a SMILES is read from it. * marks the point of attachment. Phe(3-Me) = Cc1cccc(C[C@H](N)C(=O)O)c1; Hyp = O=C(O)[C@@H]1C[C@@H](O)CN1; NH(3-Cl-phenyl) = Clc1cccc(N*)c1; NH(4-Et-phenyl) = CCc1ccc(N*)cc1; aThr = C[C@H](O)[C@H](N)C(=O)O; Pip = O=C(O)[C@@H]1CCCCN1; CO = O=C([*:1])[*:2]

Experiments:
S. aureus ΔClpP = assay: Minimal inhibitory concentration, microbroth dilution; format: cell-based, Staphylococcus aureus; conditions: MIC; ClpP inactivated
Procedure: (§1) Minimal inhibitory concentrations (“MICs”) were determined using the microbroth dilution method according to Clinical Laboratory Standards Institute (CLSI; National, C.F. C. L. S., Methods for Dilution Antimicrobial Susceptibility Tests for Bacteria Grow aerobically-Seventh Edition: Approved Standard M7-A7, CLSI, Wayne, Pa., USA, 2008) and were read by visual inspection. Two fold serial dilutions of test compound in 100 μL of the appropriate broth media were first prepared in 96-well round bottom microtiter plates (Nalgene Nunc International, Rochester, N.Y., USA). An equivalent volume (100 μL) of bacterial broth inocula containing approximately 10^5 bacterial cfu/mL was added to each well to give final concentrations of test compound starting at 200 μM. The plates were then incubated aerobically at 37° C. All strains were incubated overnight. After incubations, in all cases the MIC was recorded as the lowest concentration of drug that prevented bacterial growth. The bacterial strains for which MIC was determined as described in Table 4.

S. aureus ClpP (Sa-ClpP) = target: T1, S. aureus ClpP (Sa-ClpP) (Staphylococcus aureus, UniProt Q2G036); assay: Casein-BODIPY digestion assay (ClpP activation); format: biochemical
T1 construct: made in house; host or cells: E. coli BL21 (DE3)
T1 sequence (Q2G036 whole entry): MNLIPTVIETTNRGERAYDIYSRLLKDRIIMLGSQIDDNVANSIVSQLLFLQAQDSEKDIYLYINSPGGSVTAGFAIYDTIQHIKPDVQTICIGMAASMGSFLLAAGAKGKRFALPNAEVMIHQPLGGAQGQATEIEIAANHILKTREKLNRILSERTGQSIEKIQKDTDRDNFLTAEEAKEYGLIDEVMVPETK
Procedure: The compounds were assayed in a casein digestion assay in order to determine their effect on ClpP activation. Briefly, the assay was carried out using S. aureus ClpP (“Sa-ClpP”) overexpressed in E. coli BL21 (DE3) and purified in a two-step process. Purity of the protein was assessed through SDS PAGE analysis. EC50 evaluations were conducted in triplicate in a 20 μl assay format using a method adapted from Maurizi et al. (Methods Enzymol. (1994) 244:314-331). Each well contained 10 μM saClpP, 25 μg/ml BODIPY FL casein (Invitrogen Corporation, San Diego, Calif.), and test compound in concentrations ranging between 0-1000 μM in assay buffer (50 mM Tris pH 8, 200 mM KCl, and 1 mM TCEP). The reaction took place at 37° C. Fluorescence (excitation 485 nm; emission 528 nm) was measured in five minute intervals over a 45 min period using a BioTek HT fluorescence microplate reader (BioTek Instruments, Inc., Winooski, Vt.). Velocity of each reaction was calculated and data was fit to a dose response curve using GraphPad Prism® software (GraphPad Software, Inc., La Jolla, Calif.). EC50 is the effective concentration of compound which causes 50% activation of S. aureus ClpP in the foregoing BODIPY FL casein assay.
Alternatively, the assay was carried out using EnzCheck Protease Assay (Molecular Probes, Catalog # E6638). The assay was performed in black 384 well, flat bottom, low volume plates (Greiner Bio-One, Monroe, N.C., catalog #784076). 10 μL of Tris.HCl buffer, pH 8.0 with 0.01% Triton X-100 was pipetted into each well using a Well-Mate (Thermo Scientific, Waltham, Mass.). 0.4 μL test compounds or controls (2% DMSO v/v) were added to each well using a Biomek FX liquid handling robot (Beckman Coulter, Indianapolis, Ind.). After addition of test compounds and controls, 10 μL of master mix containing 2 μM Sa-ClpP and 2 μM substrate (Bodipy-FL labeled casein) in Tris.HCl buffer, pH 8.0 with 0.01% (v/v) Triton X-100, was pipetted into each well. All assays were performed in triplicate, under linear velocity conditions. Increase in fluorescent signal following activation of Sa-ClpP by test compounds and controls was measured over time period of 30 mins using filters with excitation at 485±15 nm and emission at 520±25 nm on a PHERAstar FS Multilabel reader (BMG, Cary, N.C.). Instrument gains and enzyme linear velocity conditions were determined and validated using ADEP4, a known Sa-ClpP activator. Data analysis was done by measuring rate of casein degradation over time (slopes). Computed degradation rates (slopes) were normalized to positive (ADEP4) or negative (DMSO) controls. Using nonlinear regression curve fitting EC50 values and % activation were determined using the equation “log [agonist] vs. Response-variable slope (four parameters)-symmetrical” in the program Prism 6 (GraphPad Software, La Jolla, Calif. USA, www.graphpad.com).

S. aureus ATCC 29213 = assay: Minimal inhibitory concentration, microbroth dilution; format: cell-based; conditions: Staphylococcus aureus
Procedure: as §1

S. aureus USA 300 = assay: as above; format: cell-based; conditions: Staphylococcus aureus
Procedure: as §1

MRSA NRS70 = assay: as above; format: cell-based; conditions: Staphylococcus aureus
Procedure: as §1

E. faecails = assay: as above; format: cell-based; conditions: Enterococcus faecalis
Procedure: as §1

[1] = ATCC29213, MIC, read-out: Minimal Inhibitory Concentrations (μM) S. aureus ATCC 29213
[2] = USA300, MIC, read-out: Minimal Inhibitory Concentrations (μM) S. aureus USA 300
[3] = MIC, read-out: Minimal Inhibitory Concentrations (μM) MRSA NRS70
[4] = MIC, read-out: Minimal Inhibitory Concentrations (μM) E. faecails
[5] = ATCC29213, read-out: Minimal Inhibitory Concentrations (μM) S. aureus ATCC 29213, MIC
[6] = USA300, read-out: Minimal Inhibitory Concentrations (μM) S. aureus USA 300, MIC
[7] = read-out: Minimal Inhibitory Concentrations (μM) MRSA NRS70, MIC
[8] = read-out: Minimal Inhibitory Concentrations (μM) E. faecails, MIC

Row | Compound | Minimal Inhibitory Concentrations (μM) S. aureus ΔClpP (S. aureus ΔClpP) | EC50 (S. aureus ClpP (Sa-ClpP)) | MIC (S. aureus ATCC 29213; [1]) | MIC (S. aureus USA 300; [2]) | MIC (MRSA NRS70; [3]) | MIC (E. faecails; [4]) | MIC (S. aureus ATCC 29213; [5]) | MIC (S. aureus USA 300; [6]) | MIC (MRSA NRS70; [7]) | MIC (E. faecails; [8])
1 | CCc1ccc(NC(=O)N[C@@H](Cc2cccc(C)c2)C(=O)N[C@H]2COC(=O)[C@@H]3C[C@H](C)CN3C(=O)[C@H](C)NC(=O)[C@@H]3CCCCN3C(=O)[C@@H]3CCCN3C2=O)cc1 [Compound 52, (S)—N-((2S,6S,8AS,14AS,20S,23AS)-2,6-DIMETHYL-5,8,14,19,23-PENTAOXOOCTADECAHYDRO-1H,5H,14H,19H-PYRIDO[2,1-I]DIPYRROLO[2,1-C:2′,1′-L][1]OXA[4,7,10,13]TETRAAZACYCLOHEXADECIN-20-YL)-2-(3-(4-ETHYLPHENYL)UREIDO)-3-(M-TOLYL)PROPANAMIDE] | >20 µM | 0.22 ± 0.1 µM | 0.625 µM (≈ 0.491 µg/mL) | 0.625 µM (≈ 0.491 µg/mL) | 0.313 µM (≈ 0.246 µg/mL) | 0.313 µM (≈ 0.246 µg/mL) |  |  |  | 
2 | Cc1cccc(C[C@H](NC(=O)Nc2ccc(Cl)cc2)C(=O)N[C@H]2COC(=O)[C@@H]3C[C@H](C)CN3C(=O)[C@H](C)NC(=O)[C@@H]3CCCCN3C(=O)[C@@H]3CCCN3C2=O)c1 [Compound 53, (S)-2-(3-(4-CHLOROPHENYL)UREIDO)-N-((2S,6S,8AS,14AS,20S,23AS)-2,6-DIMETHYL-5,8,14,19,23-PENTAOXOOCTADECAHYDRO-1H,5H,14H,19H-PYRIDO[2,1-I]DIPYRROLO[2,1-C:2′,1′-L][1]OXA[4,7,10,13]TETRAAZACYCLOHEXADECIN-20-YL)-3-(M-TOLYL)PROPANAMIDE] | >20 µM | 0.67 ± 0.3 µM |  |  |  |  | 1.25 µM (≈ 0.99 µg/mL) | 2.5 µM (≈ 1.98 µg/mL) | 1.25 µM (≈ 0.99 µg/mL) | 5 µM (≈ 3.96 µg/mL)
3 | Cc1cccc(C[C@H](NC(=O)Nc2cccc(Cl)c2)C(=O)N[C@H]2COC(=O)[C@@H]3C[C@H](C)CN3C(=O)[C@H](C)NC(=O)[C@@H]3CCCCN3C(=O)[C@@H]3CCCN3C2=O)c1 [Compound 54, (S)-2-(3-(3-CHLOROPHENYL)UREIDO)-N-((2S,6S,8AS,14AS,20S,23AS)-2,6-DIMETHYL-5,8,14,19,23-PENTAOXOOCTADECAHYDRO-1H,5H,14H,19H-PYRIDO[2,1-I]DIPYRROLO[2,1-C:2′,1′-L][1]OXA[4,7,10,13]TETRAAZACYCLOHEXADECIN-20-YL)-3-(M-TOLYL)PROPANAMIDE] | >20 µM | 1.54 ± 1.4 µM |  |  |  |  | > 20 µM | > 20 µM | 5 µM (≈ 3.96 µg/mL) | 10 µM (≈ 7.92 µg/mL)
4 | CCc1ccc(NC(=O)N[C@@H](Cc2cccc(C)c2)C(=O)N[C@H]2COC(=O)[C@@H]3CCCN3C(=O)[C@H](C)NC(=O)[C@@H]3CCCCN3C(=O)[C@@H]3C[C@@H](O)CN3C2=O)cc1 [Compound 55, (S)-2-(3-(4-ETHYLPHENYL)UREIDO)-N-((6S,8AS,14AS,16R,20S,23AS)-16-HYDROXY-6-METHYL-5,8,14,19,23-PENTAOXOOCTADECAHYDRO-1H,5H,14H,19H-PYRIDO[2,1-I]DIPYRROLO[2,1-C:2′,1′-L][1]OXA[4,7,10,13]TETRAAZACYCLOHEXADECIN-20-YL)-3-(M-TOLYL)PROPANAMIDE] | >20 µM | 1.05 ± 1 µM | 5 µM (≈ 3.94 µg/mL) | 2.5 µM (≈ 1.97 µg/mL) | 2.5 µM (≈ 1.97 µg/mL) | 2.5 µM (≈ 1.97 µg/mL) |  |  |  | 
5 | Cc1cccc(C[C@H](NC(=O)Nc2ccc(Cl)cc2)C(=O)N[C@H]2COC(=O)[C@@H]3CCCN3C(=O)[C@H](C)NC(=O)[C@@H]3CCCCN3C(=O)[C@@H]3C[C@@H](O)CN3C2=O)c1 [Compound 56, (S)-2-(3-(4-CHLOROPHENYL)UREIDO)-N-((6S,8AS,14AS,16R,20S,23AS)-16-HYDROXY-6-METHYL-5,8,14,19,23-PENTAOXOOCTADECAHYDRO-1H,5H,14H,19H-PYRIDO[2,1-I]DIPYRROLO[2,1-C:2′,1′-L][1]OXA[4,7,10,13]TETRAAZACYCLOHEXADECIN-20-YL)-3-(M-TOLYL)PROPANAMIDE] | >20 µM | 1.33 ± 2.5 µM |  |  |  |  | 5 µM (≈ 3.97 µg/mL) | 2.5 µM (≈ 1.99 µg/mL) | 10 µM (≈ 7.94 µg/mL) | 2.5 µM (≈ 1.99 µg/mL)
6 | Cc1cccc(C[C@H](NC(=O)Nc2cccc(Cl)c2)C(=O)N[C@H]2COC(=O)[C@@H]3CCCN3C(=O)[C@H](C)NC(=O)[C@@H]3CCCCN3C(=O)[C@@H]3C[C@@H](O)CN3C2=O)c1 [Compound 57, (S)-2-(3-(3-CHLOROPHENYL)UREIDO)-N-((6S,8AS,14AS,16R,20S,23AS)-16-HYDROXY-6-METHYL-5,8,14,19,23-PENTAOXOOCTADECAHYDRO-1H,5H,14H,19H-PYRIDO[2,1-I]DIPYRROLO[2,1-C:2′,1′-L][1]OXA[4,7,10,13]TETRAAZACYCLOHEXADECIN-20-YL)-3-(M-TOLYL)PROPANAMIDE] | >20 µM | 1.88 ± 2.4 µM |  |  |  |  | 20 µM (≈ 15.9 µg/mL) | 10 µM (≈ 7.94 µg/mL) | 10 µM (≈ 7.94 µg/mL) | 10 µM (≈ 7.94 µg/mL)
7 | CCc1ccc(NC(=O)N[C@@H](Cc2cccc(C)c2)C(=O)N[C@@H]2C(=O)N3C[C@H](O)C[C@H]3C(=O)N3CCCC[C@H]3C(=O)N[C@@H](C)C(=O)N3CCC[C@H]3C(=O)O[C@H]2C)cc1 [Compound 58, (S)-2-(3-(4-ETHYLPHENYL)UREIDO)-N-((6S,8AS,14AS,16R,20S,21S,23AS)-16-HYDROXY-6,21-DIMETHYL-5,8,14,19,23-PENTAOXOOCTADECAHYDRO-1H,5H,14H,19H-PYRIDO[2,1-I]DIPYRROLO[2,1-C:2′,1′-L][1]OXA[4,7,10,13]TETRAAZACYCLOHEXADECIN-20-YL)-3-(M-TOLYL)PROPANAMIDE] ({NH(4-Et-phenyl)-CO}-[Phe(3-Me)][aThr][Hyp][Pip]AP; ester 2-C) | >20 µM | 0.27 ± 0.1 µM | 2.5 µM (≈ 2 µg/mL) | 0.625 µM (≈ 0.501 µg/mL) | 0.625 µM (≈ 0.501 µg/mL) | 2.5 µM (≈ 2 µg/mL) |  |  |  | 
8 | Cc1cccc(C[C@H](NC(=O)Nc2cccc(Cl)c2)C(=O)N[C@@H]2C(=O)N3C[C@H](O)C[C@H]3C(=O)N3CCCC[C@H]3C(=O)N[C@@H](C)C(=O)N3CCC[C@H]3C(=O)O[C@H]2C)c1 [Compound 60, (S)-2-(3-(3-CHLOROPHENYL)UREIDO)-N-((6S,8AS,14AS,16R,20S,21S,23AS)-16-HYDROXY-6,21-DIMETHYL-5,8,14,19,23-PENTAOXOOCTADECAHYDRO-1H,5H,14H,19H-PYRIDO[2,1-I]DIPYRROLO[2,1-C:2′,1′-L][1]OXA[4,7,10,13]TETRAAZACYCLOHEXADECIN-20-YL)-3-(M-TOLYL)PROPANAMIDE] ({NH(3-Cl-phenyl)-CO}-[Phe(3-Me)][aThr][Hyp][Pip]AP; ester 2-C) |  | 1.47 ± 1.1 µM |  |  |  |  | > 20 µM | 10 µM (≈ 8.08 µg/mL) | 5 µM (≈ 4.04 µg/mL) | > 20 µM
